This passage reports Control value results from patent US20100137445A1, “PLANT DISEASE CONTROL AGENT, AND PLANT DISEASE CONTROL METHOD” (SUMITOMO CHEMICAL COMPANY ,LIMITED, priority 2007, published 2010).

Like-named read-outs stand apart in the source and are kept apart here.

The subject of this experiment is Phytophthora infestans. The experiment is classed as in vivo. The note with it: tomato (Patio) seedling, foliage application.
Setting [1] is: concentration of present compound 50 ppm.
[2] abbreviates: concentration of present compound 200 ppm.

`COc1ccc(C(=O)NCC2CCCCC2)cc1F` [present compound 7, N-(cyclohexylmethyl)-3-fluoro-4-methoxybenzamide]: the Control value result by setting is: under setting [1], “++ (40% or more and less than 60% of the lesion spot area on an untreated plant.)”; under setting [2], “++++ (Less than 20% of the lesion spot area on an untreated plant.)”.
Take `COc1c(F)cc(C(=O)NCC2CCCCC2)cc1F` [present compound 9, N-(cyclohexylmethyl)-3,5-difluoro-4-methoxybenzamide]: the Control value entry is, setting by setting: under setting [1], “++++ (Less than 20% of the lesion spot area on an untreated plant.)”; under setting [2], “++++ (Less than 20% of the lesion spot area on an untreated plant.)”.
